The CheMixHub viscosity set

Test: xn = mol fraction of the nth substance listed

C1CCCCC1 + c1ccccc1
Details	viscosity [mPa·s]
293.15 K, 101 kPa, x2 = 0.094	0.893
293.15 K, 101 kPa, x2 = 0.251	0.762
293.15 K, 101 kPa, x2 = 0.418	0.684
293.15 K, 101 kPa, x2 = 0.582	0.649
293.15 K, 101 kPa, x2 = 0.736	0.628
293.15 K, 101 kPa, x2 = 0.891	0.636
293.15 K, 101.32 kPa, x1 = 0.069	0.634
293.15 K, 101.33 kPa, x1 = 0.4	0.6789
293.65 K, 101.33 kPa, x1 = 0.1	0.6528
293.85 K, 101.33 kPa, x1 = 0.3	0.6581
294.35 K, 101.33 kPa, x1 = 0.7	0.7579
294.55 K, 101.33 kPa, x1 = 0.85	0.8416
294.85 K, 101.33 kPa, x1 = 0.6	0.7104
296.05 K, 101.33 kPa, x1 = 0.2	0.631
298 K, 101 kPa, x1 = 0.077	0.654
298 K, 101 kPa, x1 = 0.1226	0.654
298 K, 101 kPa, x1 = 0.1659	0.657
298 K, 101 kPa, x1 = 0.1692	0.66
298 K, 101 kPa, x1 = 0.2368	0.665
298 K, 101 kPa, x1 = 0.2613	0.669
298 K, 101 kPa, x1 = 0.2942	0.678
298 K, 101 kPa, x1 = 0.2951	0.674
298 K, 101 kPa, x1 = 0.6686	0.787
298.1 K, 101 kPa, x1 = 0.2	0.581
298.1 K, 101 kPa, x1 = 0.4	0.588
298.1 K, 101 kPa, x1 = 0.5	0.606
298.1 K, 101 kPa, x1 = 0.6	0.629
298.1 K, 101 kPa, x1 = 0.8	0.702
298.15 K, 100 kPa, x2 = 0.2504	0.7321
298.15 K, 100 kPa, x2 = 0.4997	0.6299
298.15 K, 100 kPa, x2 = 0.7497	0.575
298.15 K, 101 kPa, x1 = 0.0407	0.5938
298.15 K, 101 kPa, x1 = 0.0977	0.5871
298.15 K, 101 kPa, x1 = 0.1489	0.5839
298.15 K, 101 kPa, x1 = 0.1991	0.581
298.15 K, 101 kPa, x1 = 0.2609	0.5691
298.15 K, 101 kPa, x1 = 0.3011	0.5852
298.15 K, 101 kPa, x1 = 0.3095	0.574
298.15 K, 101 kPa, x1 = 0.3586	0.5843
298.15 K, 101 kPa, x1 = 0.3991	0.5953
298.15 K, 101 kPa, x1 = 0.4089	0.5884
298.15 K, 101 kPa, x1 = 0.4513	0.6073
298.15 K, 101 kPa, x1 = 0.4887	0.5861
298.15 K, 101 kPa, x1 = 0.4987	0.6127
298.15 K, 101 kPa, x1 = 0.5798	0.6263
298.15 K, 101 kPa, x1 = 0.5965	0.6256
298.15 K, 101 kPa, x1 = 0.6017	0.6403
298.15 K, 101 kPa, x1 = 0.6481	0.6489
298.15 K, 101 kPa, x1 = 0.6986	0.6783
298.15 K, 101 kPa, x1 = 0.7128	0.6954
298.15 K, 101 kPa, x1 = 0.8006	0.7301
298.15 K, 101 kPa, x1 = 0.8959	0.7929
298.15 K, 101 kPa, x1 = 0.9313	0.8219
298.15 K, 101 kPa, x1 = 0.9638	0.8484
298.15 K, 101 kPa, x2 = 0.0136	0.8732
298.15 K, 101 kPa, x2 = 0.1	0.7978
298.15 K, 101 kPa, x2 = 0.1043	0.8022
298.15 K, 101 kPa, x2 = 0.2	0.734
298.15 K, 101 kPa, x2 = 0.2011	0.7423
298.15 K, 101 kPa, x2 = 0.203	0.7292
298.15 K, 101 kPa, x2 = 0.2438	0.7115
298.15 K, 101 kPa, x2 = 0.3015	0.6869
298.15 K, 101 kPa, x2 = 0.31	0.6772
298.15 K, 101 kPa, x2 = 0.4	0.641
298.15 K, 101 kPa, x2 = 0.4038	0.6514
298.15 K, 101 kPa, x2 = 0.441	0.6283
298.15 K, 101 kPa, x2 = 0.5005	0.6313
298.15 K, 101 kPa, x2 = 0.549	0.6011
298.15 K, 101 kPa, x2 = 0.6	0.593
298.15 K, 101 kPa, x2 = 0.6032	0.6107
298.15 K, 101 kPa, x2 = 0.611	0.595
298.15 K, 101 kPa, x2 = 0.7006	0.5985
298.15 K, 101 kPa, x2 = 0.733	0.5877
298.15 K, 101 kPa, x2 = 0.7848	0.574
298.15 K, 101 kPa, x2 = 0.7996	0.6
298.15 K, 101 kPa, x2 = 0.8	0.587
298.15 K, 101 kPa, x2 = 0.883	0.5923
298.15 K, 101 kPa, x2 = 0.9011	0.609
298.15 K, 101.33 kPa, x1 = 0.0984	0.582
298.15 K, 101.33 kPa, x1 = 0.1986	0.576
298.15 K, 101.33 kPa, x1 = 0.3009	0.579
298.15 K, 101.33 kPa, x1 = 0.4008	0.589
298.15 K, 101.33 kPa, x1 = 0.4989	0.609
298.15 K, 101.33 kPa, x1 = 0.552	0.623
298.15 K, 101.33 kPa, x1 = 0.6007	0.639
298.15 K, 101.33 kPa, x1 = 0.6478	0.653
298.15 K, 101.33 kPa, x1 = 0.7475	0.699
298.15 K, 101.33 kPa, x1 = 0.8011	0.733
298.15 K, 101.33 kPa, x1 = 0.9022	0.803
298.15 K, 101.33 kPa, x2 = 0.1282	0.7622
